{
  "source": "patent US20230165836A1",
  "about": "“ALPHA-2 ADRENERGIC RECEPTOR AGONISTS FOR THE TREATMENT OF CANCER” (UNIVERSITÉ CATHOLIQUE DE LOUVAIN, priority 2020, published 2023)",
  "key": {"[1]": {"test_system": "JAK2V617F mutated bone marrow", "assay": "Myelofibrosis by JAK2V617F bone marrow transplantation, platelet counts", "format": "in vivo, mice", "details": "5 mg/kg daily for three weeks", "method": "Murine femurs and tibias from JAK2V617F mutant mice were first harvested and cleaned thoroughly. Marrow cells were flushed into PBS with 2% fetal bovine serum using a 25G needle and syringe. Resulting cell suspensions were then filtered through a 40 uM cell strainer. Recipient mice were irradiated with two doses of 500 rad 4 h apart. 1 million of donor cells were injected into wild-type recipients by standard intravenous injection using a 27G insulin syringe. One week after bone marrow transplantation, mice were treated with guanabenz or clonidine at a dose of 5 mg/kg daily for three weeks. After three weeks of treatment, mice were dissected and peripheral blood was drawn by cardiac puncture, the platelet concentration was measured by Cell Counter Analyzer MS9-5V."}, "[2]": {"test_system": "SKOV3 human ovarian tumor cells", "details": "SKOV3 in NSG mice", "method": "SKOV3 human ovarian tumor cells were injected subcutaneously in immune deficient NSG mice. When tumors were palpable, tumor-bearing mice received adoptive cell transfer of 3×10^6 of allogeneic human PBMC (i.v.) and were injected daily with clonidine (5 mg/kg, i.p.) or vehicle (PBS, i.p.) until sacrifice."}, "prostate cancer": {"test_system": "prostate cancer", "assay": "Xenograft model of prostate cancer in NSG mice treated with PBMC", "format": "in vivo"}, "MC38 colon carcinomas [3]": {"test_system": "MC38 colon carcinomas", "assay": "MC38 colon carcinoma in Adra2a KO mice", "format": "in vivo, C57BL/6 Adra2a KO mice", "details": "5 mg/kg, i.p. daily from tumor size around 50 mm^3", "method": "(§1) C57BL/6 Wildtype or C57BL/6 Adra2a KO mice bearing MC38 colon carcinomas received daily injections of vehicle control (PBS), clonidine (5 mg/kg, i.p.) or guanabenz (5 mg/kg, i.p.), when the tumor size was around 50 mm^3, until the day of sacrifice."}, "MC38 colon carcinomas [4]": {"test_system": "MC38 colon carcinomas", "assay": "MC38 colon carcinoma in wildtype mice", "format": "in vivo, C57BL/6 Wildtype mice", "details": "5 mg/kg, i.p. daily from tumor size around 50 mm^3", "method": "as §1"}, "JAK2V617F allele burden": {"test_system": "JAK2V617F allele burden", "assay": "Myelofibrosis by JAK2V617F bone marrow transplantation, allele burden", "format": "in vivo, C57BL/6 mice", "details": "5 mg/kg i.p. daily; Day 7 versus Day 0", "method": "Bone marrow from primary CD45.2 JAK2V617F mice was mixed 1:1 with CD45.1 C57BL/6 marrow and transplanted into lethally irradiated CD45.2 C57BL/6 recipients. 1 month after bone marrow transplantation, mice were randomized into three groups and received daily i.p injection of 5 mg/kg of clonidine, guanabenz or PBS. Blood was taken on Day 0 (Just before the treatment) and on Day 7 (7 days after the treatment). The allele burden was assessed as a fraction of CD45.2 cells along total CD45 cells in the blood of mice.\nDecreased JAK2V617F allele burden is a golden standard method to evaluate the disease progression of MF."}, "B16F1 melanoma": {"test_system": "B16F1 melanoma", "assay": "B16F1 melanoma in immune competent mice", "format": "in vivo", "details": "B16F1 in immune competent C57BL/6 mice; 5 mg/kg, i.p.; monotherapy", "method": "FIGS. 10A-B is a set of curves showing the tumor growth of B16F1 melanoma in C57BL/6J (FIG. 10A) or immunodeficient NSG mice (FIG. 10B) treated with PBS (Control, curve 1) or clonidine (5 mg/kg, i.p., curve 2).\nFIGS. 11A-B is a set of curves showing the tumor growth of B16F1 melanoma in C57BL/6J (FIG. 11A) or NSG mice (FIG. 11B) treated with PBS (Control, curve 1) or guanfacine (5 mg/kg, i.p., curve 2)."}, "lung cancer": {"test_system": "lung cancer", "assay": "Tumor model: lung cancer", "format": "in vivo, mice", "details": "lung cancer (FIG. 22D, 23D)", "text": "(§2) FIGS. 23A-H is a set of curves showing the tumor growth of mice treated with PBS (Control, circles) or guanabenz (GBZ, triangles) in different tumor models: such as mammary gland tumor (FIG. 23A), hepatocellular carcinoma (FIG. 23B), T cell lymphoma (FIG. 23C), lung cancer (FIG. 23D), myeloma (FIG. 23E), mammary adenocarcinoma (FIG. 23F), renal cancer (FIG. 23G) and fibrosarcoma (FIG. 23H)."}, "CT26 colon carcinomas": {"test_system": "CT26 colon carcinomas", "assay": "CT26 colon carcinoma model, daily i.p. treatment, tumor volume", "format": "in vivo, BALB/c mice", "details": "CT26 in BALB/c mice; 5 mg/kg, i.p. daily from tumor size around 50 mm^3 until sacrifice", "method": "Mice received a daily intra-peritoneal injection of guanabenz (5 mg/kg) or vehicle (PBS) from the day of randomization (and the day of ACT when applicable) until the day of sacrifice. For the co-administration of adrenergic receptor agonist and antagonist, BALB/c mice bearing CT26 colon carcinomas received daily injections of vehicle control, guanabenz (5 mg/kg, i.p.), or guanabenz (5 mg/kg, i.p.) plus yohimbine (10 mg/kg, i.p.), when the tumor size was around 50 mm^3, until the day of sacrifice.\n[…] mice were injected subcutaneously with 2×10^6 CT26 colon tumor cells at an age of 6 to 8 weeks. […] For evaluation of yohimbine on the effect of clonidine and guanabenz, the mice were randomized into different groups when tumors size arrived around 100 mm^3 and received daily injections of guanabenz (5 mg/kg, i.p.), yohimbine (10 mg/kg), a mix of guanabenz (5 mg/kg, i.p.) and yohimbine (10 mg/kg, i.p.), clonidine (5 mg/kg, i.p.), a mix of clonidine (5 mg/kg, i.p.) and yohimbine (10 mg/kg, i.p.) or vehicle control. Tumor size was measured every 2 days and mice were sacrificed when the tumor in control group reached 1,000 mm^3."}, "hepatocellular carcinoma": {"test_system": "hepatocellular carcinoma", "assay": "Tumor model: hepatocellular carcinoma", "format": "in vivo, mice", "details": "hepatocellular carcinoma (FIG. 22B, 23B)", "text": "as §2"}},
  "note": "Entries after “also recorded” stand apart in the source; their conditions may differ.",
  "data": [
    {"compound": "Clc1cccc(Cl)c1N=C1NCCN1", "note": "[clonidine]", "values": [
      {"measurement": "platelet (PLT) counts", "setting": "[1]", "value": "significantly reduces the platelet (PLT) counts; also recorded: significantly reduced the high platelet counts"},
      {"measurement": "anti-tumor efficacy of human PBMC", "setting": "[2]; 3×10^6 PBMC i.v., 5 mg/kg i.p. daily", "value": "strongly increased the anti-tumor efficacy of human PBMC"},
      {"measurement": "expression of CD44 on tumor-infiltrated CD8+T cells", "setting": "[2]; PBMC, 5 mg/kg i.p.", "value": "increased expression of CD44"},
      {"measurement": "infiltration of CD4+ human T cells into tumors", "setting": "[2]; PBMC, 5 mg/kg i.p.", "value": "increased"},
      {"measurement": "infiltration of CD8+ human T cells into tumors", "setting": "[2]; PBMC, 5 mg/kg i.p.", "value": "increased"},
      {"measurement": "tumor growth, compared to ACT alone", "setting": "[2]; with ACT, 5 mg/kg i.p. daily", "value": "significantly decreased"},
      {"measurement": "tumor weight on the day of sacrifice, compared to ACT alone", "setting": "[2]; with ACT, 5 mg/kg i.p. daily", "value": "significantly decreased"},
      {"measurement": "tumor growth", "setting": "prostate cancer", "value": "strong tumor inhibition"},
      {"measurement": "tumor inhibition in Adra2a KO mice", "setting": "MC38 colon carcinomas [3]", "value": "almost completely attenuated"},
      {"measurement": "tumor growth", "setting": "MC38 colon carcinomas [4]", "value": "significant tumor inhibition"},
      {"measurement": "JAK2V617F allele burden (CD45.2 cells among total CD45 cells in blood)", "setting": "JAK2V617F allele burden", "value": "decrease of JAK2V617F allele burden in a number of mice"},
      {"measurement": "tumor growth", "setting": "B16F1 melanoma", "value": "inhibited tumor growth"},
      {"measurement": "tumor growth", "setting": "lung cancer", "value": "strong tumor inhibition"},
      {"measurement": "tumor growth (tumor volume)", "setting": "CT26 colon carcinomas", "value": "promotes a decrease of the tumor volume; also recorded: strongly inhibited CT26 tumor growth"},
      {"measurement": "tumor growth", "setting": "hepatocellular carcinoma", "value": "strong tumor inhibition"}
    ]}
  ]
}
